Experiments:
[1] = parameters: species or system male Sprague-Dawley rats; conditions: rat, in vivo, po
Protocol: The solutions for gavage were prepared as follows: 35 mg of urolithin A powder was diluted in 7 ml of 15% DMSO, 0.5% methyl cellulose/0.25% Tween 80 in water, resulting in a 5 mg/ml fine suspension. The DMSO was obtained from BDH, methyl cellulose was obtained from Sigma, and Tween 80 was obtained from Sigma-Aldrich.
Blood was collected from the rats by jugular vein cannulation at different time points, and urolithin A was quantified in the plasma to determine its pharmacokinetic profile following oral gavage of Sample #1, Sample #2, and Sample #3. The study was repeated on three rats for each sample. […]

[2] = test system: 22 month old C57BL/6J old mice; assay: Treadmill endurance test in old mice fed a high protein diet with or without Urolithin A; assay type: in vivo; conditions: Urolithin A 50 mg/kg/day in high protein diet, 6 weeks, normalized over basal values, compared to mice receiving only a protein diet; no exercise regimen
Description: To mimic age related muscle loss in humans, an experimental animal model was setup in old mice. The control diet designed to be used in the experimental study was a high protein diet that would be analogous to a clinically recommended high protein diet in elderly humans at risk of muscle loss. The diet was formulated to improve the performance of old animals that consume them. The high protein diet has a better balance of essential nutrients (amino acids, vitamins and minerals) and is supplemented with 200 gr casein per kg of diet, instead of 140 gr of casein in the regular maintenance diet (Reeves PG, J. Nutr. 1997, 127(5) 838S-841S). Casein proteins are nutritionally complete, highly digestible proteins with high amino scores that contain all amino acids in amounts sufficient to support maintenance of all body proteins. Urolithin A was admixed to the high protein diet at a level of 0.57 g per kg of diet. Both the diets were isocaloric. 22 month old C57BL/6J old mice that would be equivalent to a 65 yr to 75 yr old elderly human were treated with either the high protein diet alone or a high protein diet containing Urolithin A. Both the diets contained in addition to the casein protein, essential nutrient for optimal muscle function such as L-cysteine and vitamins and mineral mix. The level of Urolithin A in the diet results in a dose of 50 mg/kg/day delivered to mice. […]

[3] = test system: myotubes; conditions: in vitro; cited from earlier work

In the case of `O=c1oc2cc(O)ccc2c2ccc(O)cc12` [Sample #2, Urolithin A], the “fold increase in the Cmax” value ([1]; male, Sprague-Dawley, 25 mg/kg) is reported as 2.16 fold, the “relative increase in the AUC” value ([1]; male, Sprague-Dawley, 25 mg/kg) is reported as 28% and the “relative increase in the Cmax” value ([1]; male, Sprague-Dawley, 25 mg/kg) is reported as 116%.
With `O=c1oc2cc(O)ccc2c2ccc(O)cc12` [Sample #3, Urolithin A] the “relative increase in the AUC” value ([1]; male, Sprague-Dawley, 25 mg/kg) was 26%.
For `O=c1oc2cc(O)ccc2c2ccc(O)cc12` [Urolithin A], the “bioavailability (in words)” value [1] was “increase in bioavailability”, the “increase in running distance” value [2] was 42% and the “increase in running time” value [2] was 28%.
In the case of `O=c1oc2cc(O)ccc2c2ccccc12` [Urolithin B], the “effect on mean diameter of myotubes” value [3] is listed as “increased”.

Source: patent US12297182B2, “Compositions comprising an urolithin compound” (Amazentis SA, priority 2015, dated 2025)
